Experimental data taken from patent US20230270692A1, “COMPOUNDS FOR CHRONIC DISORDERS” (Pillai Universal LLC, priority 2020, published 2023).
Where two headings read alike, the source gives them in different places.

How the values were obtained:
[1] = 28-day oral sub-chronic toxicity (OECD 408); assay type: in vivo
Description: […] […] Rats in control groups were administrated orally with the same volume of distilled water (vehicle). During the experimental period, the body weights of all groups were measured once a week. Animals were also visually observed for mortality, changes in behavioral patterns, changes in physical appearance, and symptoms of illness. […] Blood samples were collected for the measurement of hematological (EDTA-2K coated tubes) and biochemical (dry tubes) parameters. After euthanasia, the rats were sacrificed and organs were removed for necropsy, organ weight measurement, and histopathological examination.
Urinalysis: On the last week of the treatment period, a urine test was conducted in all rat groups. Fresh urine was collected overnight from all animals, to determine specific gravity, pH, levels of leukocytes, nitrites, protein, glucose, ketones, blood, urobilinogen, and bilirubin. Urine samples were analyzed using an automatic urine analyzer and test strips.
Hematology and serum biochemistry: For the hematological investigation, all animals fasted overnight but were allowed access to water ad libitum. The rats were then anesthetized, and blood samples were collected from the abdominal aorta. Whole blood was collected in EDTA tubes (containing potassium salt of ethylenediamine-tetracetic acid) and processed immediately for hematological analysis. The parameters measured were red blood cell count (RBC), hematocrit (HCT), hemoglobin (HGB), mean corpuscular volume (MCV), mean corpuscular hemoglobin concentration (MCHC), mean corpuscular hemoglobin (MCH), white blood cell count (WBC), neutrophils (NEU), eosinophils (EOS), basophils (BASO), lymphocytes (LYM), and monocytes (MONO). The hematological analysis was performed using an automatic hematological analyzer. For the measurement of biochemical parameters, dry tubes containing collected blood were centrifuged at 3000 rpm at 5° C. for 15 min to obtain the serum. Serum samples were analyzed using an automated biochemistry analyzer. The clinical biochemistry parameters included, total serum protein (TP), albumin (ALB), total bilirubin (T-BIL), alkaline phosphatase (ALP), alanine aminotransferase (ALT), aspartate aminotransferase (AST), uric acid (URIC), urea (UREA), creatinine (CREA), low-density lipoprotein-cholesterol (LDL-C), high-density lipoprotein-cholesterol (HDL-C), total cholesterol (TC), triglycerides (TG), and glucose (GLU). Serum electrolytes such as calcium (Ca2+), sodium (Nat), potassium (K^+), and chloride (CF) were also determined.
Necropsy and organ weight: All groups of rats were subjected to gross necropsy, which included the examination of the thoracic organs, external surface, and all of the internal organs. Vital organs were carefully examined macroscopically for any type of abnormalities. Thereafter, various organs, including the heart, liver, kidneys, stomach, lung, spleen, adrenals, thymus, epididymis, testes, uterus, and ovaries were surgically removed, cleaned with ice-cold saline solution, placed on absorbent papers, and then weighed (absolute organ weight in grams). The relative organ weight (ROW) of each animal was then calculated as follows: ROW=[Absolute organ weight (g)÷Bodyweight of rat on sacrifice day (g)]×100.
Histopathology: The major organs (lung, heart, liver, kidney) and reproductive organs (testis and ovary) were removed for histopathological examinations. After weight measurement, the organs were quickly fixed in 10% buffered formalin (pH 7.4). Following fixation, tissue specimens were dehydrated in a graded series of ethanol (70-100%), cleared in toluene, and finally enclosed in paraffin. Thereafter, 5-μm thin sections were prepared using a microtome (Leica) and stained with Haematoxylin and Eosin (H & E) prior to microscopic examination.

Vero cells = conditions: any of the concentrations tested
[2] = tested on: xenograft nude mice models (triple-negative breast cancer, pancreatic, liver, colon cancer); assay: In vivo metastasis / stage IV tumor studies in xenograft nude mice versus standard drugs; conditions: mice, after 9 months since administration
[3] = tested on: panel of human normal cell lines; assay: MTT cytotoxicity of anticancer agents on normal cell lines, alone and with Compound I; conditions: combination treatment
Description: The cytotoxicity of anticancer agents was studied using a panel of human normal cell lines alone and with the combination of Compound I of the present invention. The cytotoxicity effect was determined by MTT assay. The following cell lines were used: Human epidermal keratinocytes cells (HaCaT), Human dermal fibroblast (HDF), Human bone marrow mesenchymal stem cells (HBMSCs), Human normal hepatocytes cells (THLE2), Human cardiac cells (AC-16), Human intestinal epithelial cells (HIEC-6), Human neuronal cells (SHSY-5Y), Human vascular Endothelial cells (HuVECs), Human lung epithelial cells (Calu-3), Human lung fibroblast (MRC 5).
Next, the cells were treated with anticancer agents in combination with Compound I of the present invention.

SARS-CoV-2 [4] = assay type: in vivo; conditions: PO 250 mg B.I.D. over 7 days
[5] = tested on: cytotoxic cells, macrophages, NK cell and DC; assay: Immune response
Text: Compound I has the ability to activate CD4+ helper […] and generates an immune response in the body to protect against viral infections, Specifically, Compound I increases the number and activity of cytotoxic cells and promotes the activation of macrophages NK cell and DC which facilitate APC to CD4+ and CD8+ through capture, internalization, processing and presentation of antigens via MHC class I and II molecules.

SARS-CoV-2 [6] = assay type: cell-based
[7] = Reduction of hydroxychloroquine side effects; conditions: treatment of COVID-19
Text: Coronavirus disease (COVID-19) is an infectious disease caused by virus SARS-CoV-2. The disease causes respiratory illness with symptoms such as a cough, fever, and in more severe cases, difficulty breathing. At present, one drug that may be effective in treating COVID-19 is hydroxychloroquine. However the drug hydroxychloroquine causes serious side effects including cardiovascular diseases, eye damage, mild or severe bronchospasm, and also affects mental health. The effect of Compound I of the present invention in reducing the side effects associated with hydroxychloroquine was studied according to methods known in the art.

SARS-CoV-2 [8] = assay: microbe, parasite or virus in culture; assay type: cell-based

COc1cc(/C=C/C(=O)/C=C/C=C/c2cc(OC)c(O)c(OC)c2)cc(OC)c1 [Compound I]
plasma levels of AST, ALT, ALP activities ([1]; 200, 500, 1000 and 2000 mg/kg, both sexes): insignificant changes | food and water intakes ([1]; 28 d, P>0.05 vs control): no significant changes | body weight ([1]; acute and subacute toxicity groups): did not elicit any deleterious effect on body weight | level of creatinine, electrolytes, urea or uric acid ([1]; all doses, both sexes): no significant difference | WBC count and subtypes ([1]; any of the doses): did not cause any significant changes | hematological parameters (WBC, RBC, PCV, hemoglobin) ([1]; compared to the control group): not significantly altered | histopathology: liver ([1]; female rats): almost normal cellular architecture with normal hepataocytes | Relative organ weight (ROW) ([1]; liver, brain, kidney, heart, spleen): did not elicit any adverse effects to the vital organs | histopathology: heart ([1]; male and female rats): appeared normal | histopathology: kidney ([1]; male and female rats): almost normal size and shape of glomeruli, tubules, intestinum and blood vesicles | histopathology: lungs ([1]; male and female rats): no lymphocytic infiltrations were observed | histopathology: pancreas ([1]; male and female rats): almost no abnormalities were observed | histopathology: stomach ([1]; male and female rats): normal cellular architecture | histopathology: liver ([1]; male rats): normal hepatocytes along with normal portal triads, sinusoidal spaces and central venous system | histopathology: reproductive organs (testis, ovary) ([1]; rat, in vivo): normal pathology | levels of total protein, albumin, conjugated bilirubin and bilirubin ([1]; rat, in vivo): no significant difference | treatment related death ([1]; subacute, 28-day, both sexes): no treatment related death was observed | Toxicity (Vero cells): no toxicity was observed | relapse of disease [2]: no relapse of disease | effect on toxicity induced by anticancer agents in normal cells [3]: reduces the toxic effect induced by anticancer agents | time to decrease of overactivated cytokine-secreting immune cells (SARS-CoV-2 [4]): 3 to 5 days | time to improved pulmonary function and symptoms (SARS-CoV-2 [4]): 4 to 5 days | number and activity of cytotoxic cells [5]: increases | inhibition (SARS-CoV-2 [6]; 1 μM added after 10 h post infection): no inhibition | inhibition (SARS-CoV-2 [6]; 1 μM added between 6 and 8 h post infection): Less inhibition | inhibition (SARS-CoV-2 [6]; 1 μM added between 2 h pre-infection and 2-h post infection): Maximal inhibition | viral RNA levels (qPCR) (SARS-CoV-2 [6]; increasing concentrations): decreased | effect on hydroxychloroquine side effects [7]: assists in potentiating hydroxychloroquine by reducing the side effects | reduction in viral RNA in supernatant and cell pellets (SARS-CoV-2 [8]; 1 μM, at 48 h, compared to control samples): 99% | viral RNA in supernatant and cell pellets (SARS-CoV-2 [8]; 11 μM (figure legend)): reduction in viral RNA | IC50 (SARS-CoV-2 [8]; Severe acute respiratory syndrome coronavirus 2, Vero cells, MOI 0.1, read-out: IC50 (inhibition of virus yield)): 1000 nM | viral load measured by nucleoprotein expression (SARS-CoV-2 [8]; Vero cells, 48 h p.i., immunofluorescence): substantially reduced | reduction in cell-associated viral RNA (SARS-CoV-2 [8]; at 24 h): 99% | reduction in viral RNA present in the supernatant (SARS-CoV-2 [8]; at 24 h, compared to vehicle DMSO): 100% | viral material (SARS-CoV-2 [8]; by 36 h): effective loss of essentially all viral material
